Experimental data taken from patent US9023789B2, “Amylin analogs and pharmaceutical compositions thereof” (Novo Nordisk A/S, priority 2012, dated 2015).
Numbered stars: 1 amine (or outer) side, 2 acyl side, 3 side chain; on linkers, the order of the positions; unused ones are H or OH. Bridge positions count the residues as written; N and C are the ends. Side chains are listed from the residue outwards. Peptide text beside a SMILES is read from it. * marks the point of attachment. C20 diacid = O=C(O)CCCCCCCCCCCCCCCCCCC(=O)*; γGlu = O=C(O)[C@H](CCC(=O)[*:2])N[*:1]; AEEA = NCCOCCOCC(=O)O

What was measured:
[1] = target: T1, human amylin 3(a) receptor (human calcitonin receptor + RAMP-3) in BHK570 cells (Homo sapiens, UniProt O60896+P30988); assay: ASSAY (II)a functional assay, human amylin receptor (CRE luciferase); assay type: cell-based; conditions: for EC50: human amylin receptor functional potency, assay (II), read-out: hAmylin-R funct. EC50
T1 construct: expressed in transfected cells
In short: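 Functional agonism was measured by CRE-luciferase reporter luminescence in BHK cells bearing calcitonin receptor, or calcitonin receptor plus RAMP-3 as the amylin 3(a) receptor. Stimulation lasted 3 hours at 37° C.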

[2] = ASSAY (III) ThT fibrillation assay for physical stability; assay type: physicochemical
In short: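 Physical stability scored by ThT fluorescence (444 nm excitation, 485 nm emission) tracked every 20 min during 37 °C incubation with 960 rpm shaking, ThT at 1 μM final. Values are replicate means with SD at chosen times; HPLC against pramlintide standard gives initial and post-assay soluble concentrations.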

[3] = target: T2, human amylin receptor (membranes from Amylin 3(a)/CRE-luc cells) (Homo sapiens, UniProt O60896+P30988); assay: ASSAY (V) binding to the human amylin receptor (SPA, 125I-rat amylin); conditions: for IC50: Table 4, read-out: hAmylin-R bind IC50;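 on all read-outs here: competition binding of cell membranes (35 ng/µL) mixed with SPA beads in 384-well plates at 40 µL total volume, read by scintillation counting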
T2 construct: expressed in transfected cells
T2 sequence (P30988 25-474): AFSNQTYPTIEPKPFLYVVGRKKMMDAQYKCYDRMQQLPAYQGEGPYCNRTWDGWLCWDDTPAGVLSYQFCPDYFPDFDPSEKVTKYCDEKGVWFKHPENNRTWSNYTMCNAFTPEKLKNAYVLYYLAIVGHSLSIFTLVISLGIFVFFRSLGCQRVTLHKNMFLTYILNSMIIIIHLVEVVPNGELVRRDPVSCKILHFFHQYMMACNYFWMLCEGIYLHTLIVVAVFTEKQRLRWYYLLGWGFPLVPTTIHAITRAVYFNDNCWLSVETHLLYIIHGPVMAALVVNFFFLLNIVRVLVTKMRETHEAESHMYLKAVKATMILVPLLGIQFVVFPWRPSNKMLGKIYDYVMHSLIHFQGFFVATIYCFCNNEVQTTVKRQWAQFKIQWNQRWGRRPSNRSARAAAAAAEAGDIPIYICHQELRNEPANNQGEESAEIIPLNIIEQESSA
T2 sequence (O60896 24-148 partner): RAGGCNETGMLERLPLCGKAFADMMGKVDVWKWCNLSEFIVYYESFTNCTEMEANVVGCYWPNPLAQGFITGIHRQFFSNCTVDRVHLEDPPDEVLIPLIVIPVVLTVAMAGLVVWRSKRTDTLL

[4] = hCTR funct. EC50 divided by hAmylin-R funct. EC50
[5] = human functional selectivity: hCTR funct. EC50 / hAmylin-R funct. EC50
[6] = Table 5, selectivity, hCTR bind IC50 / hAmylin-R bind IC50
[7] = Table 5a, selectivity, hCTR bind IC50 / hAmylin-R bind IC50
[8] = Table 5b, selectivity, hCTR bind IC50 / hAmylin-R bind IC50
[9] = Table 5c, selectivity, hCTR bind IC50 / hAmylin-R bind IC50
[10] = Table 7, human binding selectivity, included for comparison
[11] = Table 7a (preferred compounds), human binding selectivity, included for comparison
[12] = ratio of human calcitonin receptor binding IC50 to human amylin receptor binding IC50
[13] = hCTR funct. EC50 over hAmylin-R funct. EC50

Compound	Ratio hCT/hAmylin funct. [1, 4]	EC50 [1] [nM]	Ratio hCT/hAmylin funct. [1, 5]	ThT pH 4.0 lag time (h) [2] [h]	IC50 [3] [nM]	Ratio hCT/hAmylin binding [3, 6]	Ratio hCT/hAmylin binding [3, 7]	Ratio hCT/hAmylin binding [3, 8]	Ratio hCT/hAmylin binding [3, 9]	Ratio hCT/hAmylin binding [3, 10]	Ratio hCT/hAmylin binding [3, 11]	Ratio hCT/hAmylin binding [3, 12]	Ratio hCT/hAmylin funct. [1, 13]
CC[C@H](C)[C@H](NC(=O)[C@H](C)NC(=O)CNC(=O)[C@H](Cc1ccccc1)NC(=O)[C@H](CC(N)=O)NC(=O)[C@@H]1CCCN1C(=O)[C@H](CO)NC(=O)[C@H](CO)NC(=O)[C@H](Cc1c[nH]cn1)NC(=O)[C@H](CCCNC(=N)N)NC(=O)[C@H](CC(C)C)NC(=O)[C@H](Cc1ccccc1)NC(=O)[C@H](CC(N)=O)NC(=O)[C@H](C)NC(=O)[C@H](CC(C)C)NC(=O)[C@H](CCCNC(=N)N)NC(=O)[C@H](CCC(N)=O)NC(=O)[C@@H](NC(=O)[C@H](C)NC(=O)[C@@H]1CSSC[C@H](NC(=O)[C@@H](N)CCCCNC(=O)COCCOCCNC(=O)CC[C@H](NC(=O)CCCCCCCCCCCCCCCCCCC(=O)O)C(=O)O)C(=O)N[C@@H](CC(N)=O)C(=O)N[C@@H]([C@@H](C)O)C(=O)N[C@@H](C)C(=O)N[C@@H]([C@@H](C)O)C(=O)N1)[C@@H](C)O)C(=O)N1CCC[C@H]1C(=O)N[C@@H](CO)C(=O)N1CCC[C@H]1C(=O)N[C@H](C(=O)N1CCC[C@H]1C(=O)N[C@H](C(=O)NCC(=O)N[C@@H](CO)C(=O)N[C@@H](CC(N)=O)C(=O)N[C@H](C(=O)N[C@@H](Cc1ccc(O)cc1)C(N)=O)[C@@H](C)O)C(C)C)[C@@H](C)O [Example 54] (H-K([AEEA-γGlu-C20 diacid])CNTATCATQRLANFLRHSSPNFGAIPSPTPVGSNTY-NH2; disulfide 2-7; N-terminus assumed)	9.6	0.103	9.6	15	0.03	146.1	146.1	146.1	146.1	146.1	146.1	146.1	–
CC[C@H](C)[C@H](NC(=O)[C@H](C)NC(=O)CNC(=O)[C@H](Cc1ccccc1)NC(=O)[C@H](CC(N)=O)NC(=O)[C@@H]1CCCN1C(=O)[C@H](CO)NC(=O)[C@H](CO)NC(=O)[C@H](Cc1c[nH]cn1)NC(=O)[C@H](CCCNC(=N)N)NC(=O)[C@H](CC(C)C)NC(=O)[C@H](Cc1ccccc1)NC(=O)[C@H](CC(N)=O)NC(=O)[C@H](C)NC(=O)[C@H](CC(C)C)NC(=O)[C@H](CCCNC(=N)N)NC(=O)[C@H](CCC(N)=O)NC(=O)[C@@H](NC(=O)[C@H](C)NC(=O)[C@@H]1CSSC[C@H](NC(=O)[C@@H](N)CCCCNC(=O)COCCOCCNC(=O)CC[C@H](NC(=O)CCCCCCCCCCCCCCCCCCC(=O)O)C(=O)O)C(=O)N[C@@H](CC(N)=O)C(=O)N[C@@H]([C@@H](C)O)C(=O)N[C@@H](C)C(=O)N[C@@H]([C@@H](C)O)C(=O)N1)[C@@H](C)O)C(=O)N1CCC[C@H]1C(=O)N1CCC[C@H]1C(=O)N[C@@H](CO)C(=O)N[C@H](C(=O)N[C@@H](CC(N)=O)C(=O)N[C@H](C(=O)NCC(=O)N1CCC[C@H]1C(=O)N[C@@H](CC(N)=O)C(=O)N[C@H](C(=O)N[C@@H](Cc1ccc(O)cc1)C(N)=O)[C@@H](C)O)C(C)C)[C@@H](C)O [Example 55] (H-K([AEEA-γGlu-C20 diacid])CNTATCATQRLANFLRHSSPNFGAIPPSTNVGPNTY-NH2; disulfide 2-7; N-terminus assumed)	10.8	0.068	10.8	24	0.042	51.8	51.8	51.8	51.8	51.8	51.8	51.8	10.8
CC[C@H](C)[C@H](NC(=O)[C@H](C)NC(=O)CNC(=O)[C@H](Cc1ccccc1)NC(=O)[C@H](CC(N)=O)NC(=O)[C@@H]1CCCN1C(=O)[C@H](CO)NC(=O)[C@H](CO)NC(=O)[C@H](Cc1c[nH]cn1)NC(=O)[C@H](CCCNC(=N)N)NC(=O)[C@H](CC(C)C)NC(=O)[C@H](Cc1ccccc1)NC(=O)[C@H](CC(N)=O)NC(=O)[C@H](C)NC(=O)[C@H](CC(C)C)NC(=O)[C@H](CCCNC(=N)N)NC(=O)[C@H](CCC(N)=O)NC(=O)[C@@H](NC(=O)[C@H](C)NC(=O)[C@@H]1CSSC[C@H](NC(=O)[C@@H](N)CCCCNC(=O)COCCOCCNC(=O)CC[C@H](NC(=O)CCCCCCCCCCCCCCCCCCC(=O)O)C(=O)O)C(=O)N[C@@H](CC(N)=O)C(=O)N[C@@H]([C@@H](C)O)C(=O)N[C@@H](C)C(=O)N[C@@H]([C@@H](C)O)C(=O)N1)[C@@H](C)O)C(=O)N1CCC[C@H]1C(=O)N[C@@H](CO)C(=O)N1CCC[C@H]1C(=O)N[C@H](C(=O)N[C@@H](CC(N)=O)C(=O)N[C@H](C(=O)NCC(=O)N1CCC[C@H]1C(=O)N[C@@H](CC(N)=O)C(=O)N[C@H](C(=O)N[C@@H](Cc1ccc(O)cc1)C(N)=O)[C@@H](C)O)C(C)C)[C@@H](C)O [Example 56] (H-K([AEEA-γGlu-C20 diacid])CNTATCATQRLANFLRHSSPNFGAIPSPTNVGPNTY-NH2; disulfide 2-7 (inferred); N-terminus assumed)	5.0	–	5.0	22	–	42.6	42.6	42.6	42.6	42.6	42.6	42.6	–
CC[C@H](C)[C@H](NC(=O)[C@H](C)NC(=O)CNC(=O)[C@H](Cc1ccccc1)NC(=O)[C@H](CC(N)=O)NC(=O)[C@@H]1CCCN1C(=O)[C@H](CO)NC(=O)[C@H](CO)NC(=O)[C@H](Cc1c[nH]cn1)NC(=O)[C@H](CCCNC(=N)N)NC(=O)[C@H](CC(C)C)NC(=O)[C@H](Cc1ccccc1)NC(=O)[C@H](CC(N)=O)NC(=O)[C@H](C)NC(=O)[C@H](CC(C)C)NC(=O)[C@H](CCCNC(=N)N)NC(=O)[C@H](CCC(N)=O)NC(=O)[C@@H](NC(=O)[C@H](C)NC(=O)[C@@H]1CSSC[C@H](NC(=O)[C@@H](N)CCCCNC(=O)COCCOCCNC(=O)CC[C@H](NC(=O)CCCCCCCCCCCCCCCCCCC(=O)O)C(=O)O)C(=O)N[C@@H](CC(N)=O)C(=O)N[C@@H]([C@@H](C)O)C(=O)N[C@@H](C)C(=O)N[C@@H]([C@@H](C)O)C(=O)N1)[C@@H](C)O)C(=O)N1CCC[C@H]1C(=O)N[C@@H](CO)C(=O)N[C@@H](CO)C(=O)N[C@H](C(=O)N[C@@H](CC(N)=O)C(=O)N[C@H](C(=O)NCC(=O)N1CCC[C@H]1C(=O)N[C@@H](Cc1c[nH]cn1)C(=O)N[C@H](C(=O)N[C@@H](Cc1ccc(O)cc1)C(N)=O)[C@@H](C)O)C(C)C)[C@@H](C)O [Example 58] (H-K([AEEA-γGlu-C20 diacid])CNTATCATQRLANFLRHSSPNFGAIPSSTNVGPHTY-NH2; disulfide 2-7)	21.9	–	21.9	38	–	109.4	109.4	109.4	109.4	109.4	109.4	109.4	21.9
